Where a name gives a salt, the structure may show the parent alone. Read-outs that look alike come from different tables or passages of the source.
Experiments:
[1] = target: 5HT2A (Homo sapiens, UniProt P28223); assay: cell-based; conditions: agonist mode; read-out: EC50
[2] = target: Alpha1a (Homo sapiens, UniProt P35348); assay: cell-based; conditions: read-out: IC50
[3] = target: CB2 (Homo sapiens, UniProt P34972); assay: cell-based; conditions: read-out: IC50
[4] = target: H2 (Homo sapiens, UniProt P25021); assay: cell-based; conditions: read-out: EC50
[5] = target: M3 (Homo sapiens, UniProt P20309); assay: cell-based
Sequence of M3 (P20309 whole entry): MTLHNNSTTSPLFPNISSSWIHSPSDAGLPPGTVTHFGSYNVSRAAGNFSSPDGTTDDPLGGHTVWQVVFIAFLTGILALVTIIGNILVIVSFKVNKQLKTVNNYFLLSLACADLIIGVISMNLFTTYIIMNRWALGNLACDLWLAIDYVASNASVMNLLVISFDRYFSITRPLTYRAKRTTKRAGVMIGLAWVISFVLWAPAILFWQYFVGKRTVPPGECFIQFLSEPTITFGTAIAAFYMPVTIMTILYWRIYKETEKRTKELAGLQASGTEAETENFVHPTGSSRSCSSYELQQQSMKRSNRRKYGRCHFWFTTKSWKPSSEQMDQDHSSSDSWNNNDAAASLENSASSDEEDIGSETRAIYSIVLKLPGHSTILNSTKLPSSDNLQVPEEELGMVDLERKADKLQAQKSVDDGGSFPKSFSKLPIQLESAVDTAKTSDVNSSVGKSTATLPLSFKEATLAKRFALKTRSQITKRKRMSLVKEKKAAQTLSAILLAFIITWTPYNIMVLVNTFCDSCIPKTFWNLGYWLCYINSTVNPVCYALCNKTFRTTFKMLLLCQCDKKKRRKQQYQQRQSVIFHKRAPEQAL

[6] = target: M1 (Homo sapiens, UniProt P11229); assay: cell-based
[7] = target: M2 (Homo sapiens, UniProt P08172); assay: cell-based
[8] = tested on: RSV long; assay: microbe, parasite or virus in culture; type: cell-based, respiratory syncytial virus; conditions: read-out: EC50 for Virus
[9] = tested on: HCV replicon 1b; assay: microbe, parasite or virus in culture; type: cell-based; conditions: Hepatitis C virus, read-out: EC50 for Virus
[10] = in vitro
[11] = tested on: Influenza virus A/California/2/2014 (H3N2); assay: microbe, parasite or virus in culture; type: cell-based; conditions: H3N2, MDCK, read-out: EC50 (mean ± SD)
[12] = tested on: Influenza virus A/California/07/2009 (H1N1)pdm09; assay: microbe, parasite or virus in culture; type: cell-based; conditions: H1N1, MDCK, read-out: EC50 (mean ± SD)
[13] = Cytotoxicity in MDCK cells without viral infection; conditions: dog
[14] = tested on: A/PR/8/34 (H1N1); design: species or system BALB/c mice; conditions: mouse, in vivo
[15] = tested on: AD2; type: cell-based, human
[16] = tested on: influenza A virus WSN/33 (H1N1); design: species or system BALB/c mice; conditions: mouse, in vivo
[17] = target: T1, CCKa (Homo sapiens, UniProt P32238); assay: cell-based; conditions: read-out: IC50
T1 sequence (P32238 1-428): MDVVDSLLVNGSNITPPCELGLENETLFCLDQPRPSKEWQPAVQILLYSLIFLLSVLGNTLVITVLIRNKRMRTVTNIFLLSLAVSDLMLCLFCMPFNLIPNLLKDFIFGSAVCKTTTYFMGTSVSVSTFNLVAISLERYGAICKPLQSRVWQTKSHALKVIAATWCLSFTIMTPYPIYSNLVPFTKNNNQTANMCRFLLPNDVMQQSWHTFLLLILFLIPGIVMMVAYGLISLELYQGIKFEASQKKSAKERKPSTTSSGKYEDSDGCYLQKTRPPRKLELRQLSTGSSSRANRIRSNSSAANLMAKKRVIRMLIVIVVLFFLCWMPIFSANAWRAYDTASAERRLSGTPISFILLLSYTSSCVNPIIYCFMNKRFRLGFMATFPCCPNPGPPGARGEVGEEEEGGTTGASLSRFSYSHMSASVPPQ

[18] = tested on: AD2; type: cell-based, human; conditions: read-out: EC50
[19] = in vitro; conditions: rhesus monkey
[20] = tested on: HPIV-3 C243; assay: microbe, parasite or virus in culture; type: cell-based, human parainfluenza virus type 3; conditions: Human respirovirus 3, LLC-MK2, read-out: EC50 for Virus
[21] = in vitro; conditions: dog, CC50 (mean ± SD)
[22] = tested on: Influenza virus B/Lee/40; assay: microbe, parasite or virus in culture; type: cell-based; conditions: MDCK, read-out: EC50 (mean ± SD)
[23] = tested on: A/Qingyuan/GIRD01/2017 (H7N9); assay: microbe, parasite or virus in culture; type: cell-based, avian influenza virus; conditions: Influenza A virus, H7N9, MDCK, read-out: IC50 (mean ± SD)
[24] = tested on: Influenza virus A/Mal/302/54 (H1N1); assay: microbe, parasite or virus in culture; type: cell-based; conditions: H1N1, MDCK, read-out: EC50 (mean ± SD)
[25] = target: Aurora A (Homo sapiens, UniProt O14965); assay: biochemical
[26] = tested on: Influenza virus A/Weiss/43(H1N1); assay: microbe, parasite or virus in culture; type: cell-based; conditions: H1N1, MDCK, read-out: EC50 (mean ± SD)
[27] = target: ABL1 (Homo sapiens, UniProt P00519); assay: biochemical
Sequence of ABL1 (P00519 whole entry): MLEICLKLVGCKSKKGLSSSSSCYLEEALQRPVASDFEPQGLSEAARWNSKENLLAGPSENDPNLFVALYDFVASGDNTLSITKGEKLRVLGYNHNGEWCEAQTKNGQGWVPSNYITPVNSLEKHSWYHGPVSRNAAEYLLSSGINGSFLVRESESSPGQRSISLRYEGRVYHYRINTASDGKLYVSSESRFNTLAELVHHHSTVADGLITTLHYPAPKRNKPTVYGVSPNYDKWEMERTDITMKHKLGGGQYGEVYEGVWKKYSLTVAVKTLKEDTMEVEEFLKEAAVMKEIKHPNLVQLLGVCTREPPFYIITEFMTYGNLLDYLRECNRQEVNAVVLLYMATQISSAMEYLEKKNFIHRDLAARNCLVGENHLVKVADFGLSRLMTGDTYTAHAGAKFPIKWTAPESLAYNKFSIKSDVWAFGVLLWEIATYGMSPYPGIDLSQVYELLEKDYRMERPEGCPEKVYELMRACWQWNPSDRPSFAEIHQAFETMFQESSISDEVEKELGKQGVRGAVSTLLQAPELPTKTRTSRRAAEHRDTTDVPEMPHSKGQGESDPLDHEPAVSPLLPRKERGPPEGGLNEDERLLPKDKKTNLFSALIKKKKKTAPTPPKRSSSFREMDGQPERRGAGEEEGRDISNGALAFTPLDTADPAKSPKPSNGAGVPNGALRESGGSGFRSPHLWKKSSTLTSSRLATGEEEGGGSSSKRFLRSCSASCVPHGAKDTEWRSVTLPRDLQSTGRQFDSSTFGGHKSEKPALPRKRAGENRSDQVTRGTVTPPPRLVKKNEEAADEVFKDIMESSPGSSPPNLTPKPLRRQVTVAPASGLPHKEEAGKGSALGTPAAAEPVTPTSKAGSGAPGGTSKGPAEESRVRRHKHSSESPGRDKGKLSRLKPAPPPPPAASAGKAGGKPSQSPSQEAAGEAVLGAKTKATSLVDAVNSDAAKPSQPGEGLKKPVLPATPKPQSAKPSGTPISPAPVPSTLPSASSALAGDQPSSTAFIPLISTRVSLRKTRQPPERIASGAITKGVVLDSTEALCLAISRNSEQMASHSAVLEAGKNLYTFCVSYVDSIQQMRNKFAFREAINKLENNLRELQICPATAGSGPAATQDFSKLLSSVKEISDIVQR

[28] = target: CDK2 (Homo sapiens, UniProt P24941); assay: biochemical
[29] = target: MST4 (Homo sapiens, UniProt Q9P289); assay: biochemical
Sequence of MST4 (Q9P289 whole entry): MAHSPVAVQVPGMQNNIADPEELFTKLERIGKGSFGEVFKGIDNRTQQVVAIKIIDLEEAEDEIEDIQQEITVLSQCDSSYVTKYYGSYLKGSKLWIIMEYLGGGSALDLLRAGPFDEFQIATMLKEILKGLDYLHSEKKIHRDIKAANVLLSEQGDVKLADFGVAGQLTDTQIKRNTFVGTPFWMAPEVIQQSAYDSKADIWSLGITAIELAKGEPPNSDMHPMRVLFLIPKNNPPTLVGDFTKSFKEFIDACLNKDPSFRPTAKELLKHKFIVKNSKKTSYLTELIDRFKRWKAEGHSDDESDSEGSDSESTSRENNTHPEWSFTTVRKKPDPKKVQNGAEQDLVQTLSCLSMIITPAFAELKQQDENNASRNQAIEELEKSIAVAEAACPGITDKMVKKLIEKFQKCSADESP

[30] = target: influenza virus polymerase (PB1, PB2, NP, PA from A/California/04/2009 (H1N1) pdm09) (Influenza A virus, UniProt C3W5R8+C3W5R9); type: cell-based
[31] = target: p38 alpha (Homo sapiens, UniProt Q16539); assay: biochemical
[32] = target: LCK (Homo sapiens, UniProt P06239); assay: biochemical
[33] = tested on: Influenza virus A/PR/8/34 (H1N1); assay: microbe, parasite or virus in culture; type: cell-based; conditions: H1N1|PR/8, MDCK, read-out: EC50 (mean ± SD)
[34] = tested on: Influenza virus A/Hong Kong/8/68 (H3N2); assay: microbe, parasite or virus in culture; type: cell-based; conditions: unidentified influenza virus, H3N2, MDCK, read-out: EC50 (mean ± SD)
[35] = tested on: A/Guangzhou/39715/2014 (H5N6); assay: microbe, parasite or virus in culture; type: cell-based, avian influenza virus; conditions: unidentified influenza virus, H5N6, MDCK, read-out: IC50 (mean ± SD)
[36] = target: EPHA2 (Homo sapiens, UniProt P29317); assay: biochemical
[37] = target: CK1 alpha (Homo sapiens, UniProt P48729); assay: biochemical
Sequence of CK1 alpha (P48729 whole entry): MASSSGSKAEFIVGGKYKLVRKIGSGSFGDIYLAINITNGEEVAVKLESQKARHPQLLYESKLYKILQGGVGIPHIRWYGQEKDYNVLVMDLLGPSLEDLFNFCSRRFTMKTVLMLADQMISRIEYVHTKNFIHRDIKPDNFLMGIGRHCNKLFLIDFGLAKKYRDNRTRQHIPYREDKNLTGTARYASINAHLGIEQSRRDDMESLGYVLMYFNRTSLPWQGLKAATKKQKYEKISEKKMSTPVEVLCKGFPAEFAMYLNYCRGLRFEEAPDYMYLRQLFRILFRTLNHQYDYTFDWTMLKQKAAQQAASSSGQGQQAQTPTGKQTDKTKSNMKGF

[38] = target: JAK2 (Homo sapiens, UniProt O60674); assay: biochemical
[39] = target: MINK (Homo sapiens, UniProt Q8N4C8); assay: biochemical
[40] = target: SRC (Homo sapiens, UniProt P12931); assay: biochemical
[41] = tested on: Influenza virus A/WSN/33 (H1N1); assay: microbe, parasite or virus in culture; type: cell-based; conditions: MDCK, read-out: EC50 (mean ± SD)
[42] = target: PDK1 (Homo sapiens, UniProt O15530); assay: biochemical
[43] = tested on: influenza A virus WSN/33 (H1N1); design: species or system BALB/c mice; conditions: mouse, in vivo; remark: listed apart in the source
[44] = target: MAP4K4 (Homo sapiens, UniProt O95819); assay: biochemical
Sequence of MAP4K4 (O95819 whole entry): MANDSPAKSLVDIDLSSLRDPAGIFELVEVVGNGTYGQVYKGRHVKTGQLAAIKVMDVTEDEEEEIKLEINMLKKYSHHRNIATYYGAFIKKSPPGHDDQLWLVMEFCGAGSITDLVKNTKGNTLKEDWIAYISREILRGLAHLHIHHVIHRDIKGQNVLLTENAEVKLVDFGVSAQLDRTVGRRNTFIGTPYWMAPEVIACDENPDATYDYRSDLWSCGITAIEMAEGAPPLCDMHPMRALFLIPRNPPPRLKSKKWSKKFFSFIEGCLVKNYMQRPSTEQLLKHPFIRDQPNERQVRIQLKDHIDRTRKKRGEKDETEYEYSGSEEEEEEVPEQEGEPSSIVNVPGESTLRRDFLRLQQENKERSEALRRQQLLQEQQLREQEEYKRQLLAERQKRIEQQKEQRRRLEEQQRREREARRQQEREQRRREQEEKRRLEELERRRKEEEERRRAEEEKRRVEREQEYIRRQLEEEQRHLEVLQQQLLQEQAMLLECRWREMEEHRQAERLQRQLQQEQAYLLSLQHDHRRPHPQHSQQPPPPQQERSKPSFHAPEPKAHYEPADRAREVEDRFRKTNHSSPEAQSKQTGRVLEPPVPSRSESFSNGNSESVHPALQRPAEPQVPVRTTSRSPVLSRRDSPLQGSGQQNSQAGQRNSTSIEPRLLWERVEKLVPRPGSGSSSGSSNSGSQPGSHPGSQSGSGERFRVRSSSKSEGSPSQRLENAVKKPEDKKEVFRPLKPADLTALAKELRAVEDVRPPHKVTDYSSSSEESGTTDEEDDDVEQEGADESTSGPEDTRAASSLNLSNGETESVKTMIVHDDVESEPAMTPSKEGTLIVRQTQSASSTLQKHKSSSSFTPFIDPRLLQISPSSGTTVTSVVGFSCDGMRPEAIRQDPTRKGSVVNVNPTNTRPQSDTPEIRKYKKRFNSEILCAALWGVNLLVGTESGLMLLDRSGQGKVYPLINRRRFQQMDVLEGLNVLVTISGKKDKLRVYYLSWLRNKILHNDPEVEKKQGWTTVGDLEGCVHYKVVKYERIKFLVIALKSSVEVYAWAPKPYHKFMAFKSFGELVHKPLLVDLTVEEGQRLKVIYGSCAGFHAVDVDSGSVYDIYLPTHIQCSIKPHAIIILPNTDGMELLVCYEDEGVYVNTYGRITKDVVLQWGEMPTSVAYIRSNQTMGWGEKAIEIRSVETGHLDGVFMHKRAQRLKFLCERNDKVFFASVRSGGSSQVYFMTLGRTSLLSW

[45] = target: KDR (Homo sapiens, UniProt P35968); assay: biochemical
[46] = target: FGFR1 (Homo sapiens, UniProt P11362); assay: biochemical
Sequence of FGFR1 (P11362 22-822): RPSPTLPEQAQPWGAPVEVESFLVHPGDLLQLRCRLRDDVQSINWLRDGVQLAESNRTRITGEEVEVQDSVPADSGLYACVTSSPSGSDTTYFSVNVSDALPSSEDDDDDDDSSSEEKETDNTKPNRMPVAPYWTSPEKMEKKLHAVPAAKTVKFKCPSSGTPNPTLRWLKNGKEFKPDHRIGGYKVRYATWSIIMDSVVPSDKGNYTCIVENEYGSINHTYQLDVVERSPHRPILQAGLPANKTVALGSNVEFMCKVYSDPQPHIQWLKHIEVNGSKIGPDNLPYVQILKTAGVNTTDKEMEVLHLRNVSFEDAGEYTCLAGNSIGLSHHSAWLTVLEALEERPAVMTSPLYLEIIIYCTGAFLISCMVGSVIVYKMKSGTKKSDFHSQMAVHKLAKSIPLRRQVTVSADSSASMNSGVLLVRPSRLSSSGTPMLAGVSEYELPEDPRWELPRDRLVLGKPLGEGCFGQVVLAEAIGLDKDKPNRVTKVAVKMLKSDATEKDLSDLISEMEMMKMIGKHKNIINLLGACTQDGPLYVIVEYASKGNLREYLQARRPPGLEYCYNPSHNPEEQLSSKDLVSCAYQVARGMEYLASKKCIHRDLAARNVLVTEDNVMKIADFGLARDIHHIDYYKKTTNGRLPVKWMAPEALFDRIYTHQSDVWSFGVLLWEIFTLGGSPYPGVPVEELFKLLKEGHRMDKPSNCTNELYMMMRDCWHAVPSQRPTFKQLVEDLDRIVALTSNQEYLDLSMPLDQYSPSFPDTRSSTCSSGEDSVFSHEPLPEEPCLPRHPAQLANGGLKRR

[47] = target: GSK3 beta (Homo sapiens, UniProt P49841); assay: biochemical
[48] = target: TNIK (Homo sapiens, UniProt Q9UKE5); assay: biochemical
[49] = target: PKA (Homo sapiens, UniProt P17612); assay: biochemical
[50] = target: JNK1 (Homo sapiens, UniProt P45983); assay: biochemical
[51] = tested on: influenza A virus WSN/33 (H1N1); design: species or system BALB/c mice; conditions: mouse, in vivo; remark: listed apart in the source
[52] = target: MAPKAPK2 (Homo sapiens, UniProt P49137); assay: biochemical
[53] = tested on: Influenza virus A/WS/33 (H1N1); assay: microbe, parasite or virus in culture; type: cell-based; conditions: H1N1, MDCK, read-out: EC50 (mean ± SD)
[54] = target: CAMK2 alpha (Homo sapiens, UniProt Q9UQM7); assay: biochemical
Sequence of CAMK2 alpha (Q9UQM7 whole entry): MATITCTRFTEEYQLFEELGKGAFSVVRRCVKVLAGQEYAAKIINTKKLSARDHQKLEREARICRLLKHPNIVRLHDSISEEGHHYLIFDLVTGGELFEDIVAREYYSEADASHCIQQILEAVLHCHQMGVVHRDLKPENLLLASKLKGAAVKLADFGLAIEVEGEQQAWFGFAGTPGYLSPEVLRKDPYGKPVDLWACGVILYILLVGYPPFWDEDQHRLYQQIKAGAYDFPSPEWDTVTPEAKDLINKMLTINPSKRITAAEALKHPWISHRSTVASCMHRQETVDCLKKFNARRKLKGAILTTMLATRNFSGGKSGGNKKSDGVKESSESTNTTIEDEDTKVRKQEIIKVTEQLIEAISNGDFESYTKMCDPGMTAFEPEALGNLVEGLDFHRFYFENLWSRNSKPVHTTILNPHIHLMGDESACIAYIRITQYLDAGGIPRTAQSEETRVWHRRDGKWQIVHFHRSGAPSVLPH

[55] = target: DYRK3 (Homo sapiens, UniProt O43781); assay: biochemical
[56] = target: TAOK2 (Homo sapiens, UniProt Q9UL54); assay: biochemical
[57] = tested on: influenza A virus/California/07/2009 (H1N1); design: species or system ferrets; conditions: in vivo, po, 25 mg/kg/day
[58] = tested on: A/Anhui/01/2013 (H7N9); assay: microbe, parasite or virus in culture; type: cell-based, avian influenza virus; conditions: Influenza A virus, H7N9, MDCK, read-out: IC50 (mean ± SD)
[59] = target: CHK1 (Homo sapiens, UniProt O14757); assay: biochemical

## NCCc1c[nH]c2ccc(C(N)=O)cc12 [5-CT, reference compound]
[1]
  EC50: 9.35 nM

## COc1ccccc1N1CCN(CCCNc2c(C)c(=O)n(C)c(=O)n2C)CC1 [5-Methylurapidil, reference compound]
[2]
  IC50: 3.65 nM

## COc1ccc(C(=O)c2c(C)n(CCN3CCOCC3)c3cc(I)ccc23)cc1 [AM630, reference compound]
[3]
  IC50: 234 nM

## Cc1nc(N)sc1CCN [Amthamine dihydrobromide, reference compound]
[4]
  EC50: 1340 nM

## C#CCOC(=O)C1=CCCN(C)C1 [Arecaidine propargyl ester, reference compound]
[5]
  EC50: 0.31 nM
[6]
  EC50: 0.78 nM
[7]
  EC50: 76.2 nM

## O=c1n(Cc2nc3ccccc3n2CCCCO)c2cnccc2n1C1CC1 [BMS-433771, reference compound]
[8]
  EC50: 14 nM

## COC(=O)N[C@H](C(=O)N1CCC[C@H]1c1nc(-c2ccc(-c3ccc(-c4c[nH]c([C@@H]5CCCN5C(=O)[C@@H](NC(=O)OC)C(C)C)n4)cc3)cc2)c[nH]1)C(C)C [BMS-790052, reference compound]
[9]
  EC50: 0.021 nM
[10]
  CC50: > 3 nM

## O=C1c2c(O)c(=O)ccn2N([C@@H]2c3ccccc3SCc3c2ccc(F)c3F)[C@@H]2COCCN12 [Baloxavir]
[11]
  EC50: 0.61 ± 0.02 nM
[12]
  EC50: 1.06 ± 0.22 nM
[13]
  CC50: 14400 ± 1520 nM
[14]
  mortality rate: 40%

## Nc1nc2ccc(Cl)cc2c2nc(-c3ccco3)nn12 [CGS-15943, reference compound]
[15]
  IC50: 0.11 nM

## NC(=O)c1nc(F)c[nH]c1=O [Favipiravir]
[16]
  animals died (of n = 8): six
  day on which body weight of surviving mice began to recover: 9 days

## CCCCCN(CCCCC)C(=O)C(CCC(=O)O)NC(=O)c1ccc(Cl)c(Cl)c1 (stereo not shown) [Lorglumide, reference compound]
[17]
  IC50: 256 nM

## CCNC(=O)[C@H]1O[C@@H](n2cnc3c(N)ncnc32)[C@H](O)[C@@H]1O [NECA, reference compound]
[18]
  EC50: 27.8 nM

## NC(=O)c1ncn([C@@H]2O[C@H](CO)[C@@H](O)[C@H]2O)n1 [Ribavirin, reference compound]
[19]
  CC50: > 100000 nM
[20]
  EC50: 20300 nM

## O=C(O)[C@H]1C2CCC(CC2)[C@@H]1Nc1nc(-c2c[nH]c3ncc(F)cc23)ncc1F [VX-787, reference compound]
[21]
  CC50: 21100 ± 9760 nM
[22]
  EC50: > 10 nM
[23]
  IC50: 1.92 ± 0.492 nM
[11]
  EC50: 0.15 ± 0.02 nM
[24]
  EC50: 0.295 ± 0.111 nM
[25]
  IC50: 1110 nM
[26]
  EC50: 0.255 ± 0.055 nM
[27]
  IC50: > 10000 nM
[28]
  IC50: > 10000 nM
[29]
  IC50: > 10000 nM
[30]; read-out: IC50, Mean ± SEM
  IC50: 1.45 ± 0.34 nM
[30]; read-out: IC50, experiment 1
  IC50: 1.28 nM
[30]; read-out: IC50, experiment 2
  IC50: 1.23 nM
[30]; read-out: IC50, experiment 3
  IC50: 1.84 nM
[31]
  IC50: > 10000 nM
[32]
  IC50: > 10000 nM
[33]
  EC50: 0.76 ± 0.355 nM
[34]
  EC50: 0.162 ± 0.034 nM
[35]
  IC50: 0.0918 ± 0.0145 nM
[36]
  IC50: > 10000 nM
[37]
  IC50: > 10000 nM
[12]
  EC50: 0.24 ± 0.14 nM
[38]
  IC50: > 10000 nM
[39]
  IC50: > 3330 nM
[40]
  IC50: > 10000 nM
[41]
  EC50: 0.315 ± 0.07 nM
[14]
  mortality rate: 70%
[42]
  IC50: > 10000 nM
[43]
  body weight of mice: did not significantly reduce the body weight
  survival rate vs vehicle: could improve the survival rate
  time of death relative to vehicle group: died after 7 h—earlier than in the vehicle group
[44]
  IC50: 1780 nM
[45]
  IC50: > 10000 nM
[46]
  IC50: > 10000 nM
[47]
  IC50: > 3330 nM
[48]
  IC50: > 3330 nM
[49]
  IC50: > 10000 nM
[16]
  animals died (of n = 8): four
  day on which body weight of surviving mice began to recover: 8 days
  day on which weight of surviving mice increased gradually: 8th
  mice died (of n = 8): no mice died
  survival rate: 100%
[50]
  IC50: > 10000 nM
[51]
  day on which mice began to regain body weight: 4 days
[52]
  IC50: > 10000 nM
[53]
  EC50: 0.206 ± 0.061 nM
[54]
  IC50: > 10000 nM
[55]
  IC50: > 10000 nM
[56]
  IC50: > 10000 nM
[57]
  viral load in nasal lavage fluid vs vehicle: decreased but showed no statistical significance
[58]
  IC50: 0.834 ± 0.204 nM
[59]
  IC50: > 10000 nM

From article PMC10056986 (Pharmaceuticals, 2023)
